In PubChem BioAssay (NCI):
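Cells were grown in 96-well plates and exposed to each compound for 48 hours at five concentrations; endpoints were interpolated linearly between bracketing concentrations, or set to the highest concentration if not reached. TGI is the concentration that stops growth completely.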

How the values were obtained:
Assay in all cases: NCI anticancer screen, dose series, 48 h
[1] = tested on: MDA-MB-435
[2] = tested on: SF-539 CNS
[3] = tested on: MDA-N
[4] = tested on: SF-268 CNS
[5] = tested on: OVCAR-3 ovarian
[6] = tested on: OVCAR-5 ovarian
[7] = tested on: A549 NSCLC
[8] = tested on: OVCAR-8 ovarian
[9] = tested on: CAKI-1 renal
[10] = tested on: HT29 colon
[11] = tested on: U251 CNS
[12] = tested on: UO-31 renal
[13] = tested on: NCI/ADR-RES ovarian
[14] = tested on: IGROV1 ovarian
[15] = tested on: NCI-H460 lung
[16] = tested on: RPMI-8226 leukemia
[17] = tested on: MALME-3M melanoma
[18] = tested on: SK-MEL-28 melanoma
[19] = tested on: HOP-92 NSCLC
[20] = tested on: HL-60(TB) leukemia
[21] = tested on: PC-3 prostate
[22] = tested on: COLO 205 colon
[23] = tested on: NCI-H522 lung
[24] = tested on: M14 melanoma
[25] = tested on: DU-145 prostate
[26] = tested on: MDA-MB-231 breast
[27] = tested on: HCT-15 colon
[28] = tested on: CCRF-CEM leukemia
[29] = tested on: HCC-2998 colon
[30] = tested on: EKVX NSCLC
[31] = tested on: MOLT-4 leukemia
[32] = tested on: A498 renal
[33] = tested on: UACC-257 melanoma
[34] = tested on: LOX IMVI melanoma
[35] = tested on: BT-549 breast
[36] = tested on: SR leukemia
[37] = tested on: MCF7 breast
[38] = tested on: UACC-62 melanoma
[39] = tested on: SN12C renal
[40] = tested on: SW-620 colon
[41] = tested on: T-47D breast
[42] = tested on: SF-295 CNS
[43] = tested on: SK-OV-3 ovarian
[44] = tested on: 786-0 renal
[45] = tested on: KM12 colon
[46] = tested on: SNB-75 CNS
[47] = tested on: NCI-H23 lung
[48] = tested on: K-562 leukemia
[49] = tested on: NCI-H226 lung
[50] = tested on: HS 578T breast
[51] = tested on: HCT-116 colon
[52] = tested on: SNB-19 CNS
[53] = tested on: SK-MEL-2 melanoma
[54] = tested on: HOP-62 NSCLC
[55] = tested on: ACHN renal
[56] = tested on: TK-10 renal
[57] = tested on: SK-MEL-5 melanoma
[58] = tested on: RXF 393 renal
[59] = tested on: OVCAR-4 ovarian

Measured: TGI

Cc1ccc(S(=O)(=O)N/N=C2/CC3CCC4CC2CC34)cc1 (configuration not stated)
> 100 µM: [1] | [2] | [3] | [4] | [5] | [6] | [7] | [8] | [9] | [10] | [11] | [12] | [13] | [14] | [15] | [16] | [17] | [18] | [19] | [20] | [21] | [22] | [23] | [24] | [25] | [26] | [27] | [28] | [29] | [30] | [31] | [32] | [33] | [34] | [35] | [36] | [37] | [38] | [39] | [40] | [41] | [42] | [43] | [44] | [45] | [46] | [47] | [48] | [49] | [50] | [51] | [52] | [53] | [54] | [55] | [56] | [57]

Clc1ccccc1C(Nc1ncccn1)Nc1ncccn1
> 100 µM: [1] | [2] | [3] | [4] | [5] | [6] | [7] | [8] | [9] | [10] | [11] | [12] | [58] | [13] | [59] | [14] | [15] | [16] | [18] | [19] | [20] | [21] | [22] | [23] | [24] | [25] | [26] | [27] | [29] | [30] | [31] | [32] | [33] | [34] | [35] | [36] | [37] | [38] | [39] | [40] | [41] | [42] | [43] | [44] | [45] | [46] | [47] | [48] | [49] | [50] | [51] | [52] | [53] | [54] | [55] | [56] | [57]

CCOC(=O)CN1CC(C2=C(O)CN(CC(=O)OCC)C2=O)=CC1=O
> 100 µM: [1] | [2] | [3] | [4] | [5] | [6] | [7] | [8] | [9] | [10] | [11] | [12] | [13] | [59] | [14] | [15] | [16] | [17] | [18] | [19] | [20] | [21] | [22] | [23] | [24] | [25] | [26] | [27] | [28] | [29] | [30] | [31] | [32] | [33] | [34] | [35] | [36] | [37] | [38] | [39] | [40] | [41] | [42] | [43] | [44] | [45] | [46] | [47] | [48] | [49] | [50] | [51] | [52] | [53] | [54] | [55] | [56] | [57]
